The values that follow are results of earlier work, collected in patent US20130115246A1 (Lupin Atlantis Holdings, S.A., priority 2011, published 2013).

SMILES strings stand for the structures.

For the data set the following is noted: in vivo.

Regarding `CC(C)(Oc1ccc(C(=O)c2ccc(Cl)cc2)cc1)C(=O)O` [Fenofibric acid], the elimination half-life entry was “about 20 hours”.
